Reference: patent US10596264B2, “Peptides with viral infection enhancing properties and their use” (Genethon, priority 2011, dated 2020)
Where no end group is shown, it is not given here.

What was measured:
[1] = tested on: human CD34+ cells; type: cell-based
[2] = tested on: hCD34+ cells; conditions: for Cytotoxic effect of the peptides: hCD34+ cells transduced with RD114TR-LV or GALVTR-MLV, peptide 12 μg/ml
[3] = tested on: human hematopoietic cells engraftment; conditions: hCD34+ cells transduced in presence of 12 μg/ml LAH4-L1
[4] = tested on: lentiviral vectors; conditions: Wurm et al., 2010; cited from earlier work
[5] = tested on: 293T cells; test: Transfection of 293T cells with pEGFP-C1 in presence of peptides; type: cell-based; conditions: peptide 24 μg/ml; 1 μg pEGFP-C1; 48 h
Description: FIG. 11. Transfection of 293T cells with pEGFP in presence of LAH4-A4, LAH4-L1 or K2-L10A12-K2 peptides. pEGFP-C1 (1 μg) was mixed in 50 μl of 150 mM NaCl solution with either 3 μg, 4.5 μg, 6 μg or 9 μg of LAH4-A4 or 6 μg of LAH4-L1 or 6 μg of K2-L10A12-K2. Next, the DNA/peptide mix was diluted in 200 μl of DMEM without FCS and loaded onto cell monolayers. 3 hours post-transfection, the medium was replaced with DMEM containing 10% FCS. 48 h later, transfection efficiencies were estimated by monitoring GFP expression using flow cytometry. Data are the average of two independent experiments performed in duplicate with SD.
293T cells (1.5×10E5/well) were plated in 48-well plates the day before transfection. For transfection, 1 μg of pEGFP-C1 was mixed with the desired amount of peptide in 50 μl of 150 mM NaCl solution, vortexed and incubated 15 min at room temperature. Next, the DNA/peptide mix was diluted in 200 μl of DMEM without FCS and loaded onto cell monolayers. 3 hours post-transfection, the medium was replaced with DMEM containing 10% FCS. 48 h later, transfection efficiency was estimated by monitoring GFP expression using flow cytometry.

## KALLHAALAHLLALAHHLLALLKKA (LAH4-A4-K1N)
[1]
  hCD34+ transduction level compared to LAH4-A4: 60%

## KKALLAHALHLLALLALHLAHALA (LAH4-L1-dKC)
[1]
  Transduction efficiency compared with LAH4-L1 (in words): as efficiently as LAH4-L1

## KKLLHAALAHLLALAHHLLALLKK (LAH4-A4-d2aa)
[1]
  hCD34+ transduction level compared to LAH4-A4: 30%

## KKALLAHALHLLALLALHLAHALKKA-NH2 [LAH4-L1]
[2]
  Cytotoxic effect (mortality, 7-AAD): did not observe any cytotoxic effect
  Cytotoxic effect of the peptides: did not observe any cytotoxic effect
[3]
  Cytotoxic or deleterious effect on human immune system reconstitution: did not observed any cytotoxic or deleterious effect

## ALLAHALHLLALLALHLAHALA (LAH4-L1-dK) [LAH4-L 1-dK]
[1]
  Transduction efficiency compared with LAH4-L1 (in words): not detectable

## KKKLLHAALAHLLALAHHLLALLKKA (LAH4-A4-K3N)
[1]
  Transduction efficiency compared with LAH4-A4 (in words): as efficient as LAH4-A4

## ALLAHALHLLALLALHLAHALKKA (LAH4-L1-dKN)
[1]
  Transduction efficiency compared with LAH4-L1 (in words): not detectable

## KKALLHAALAHLLALAHHLLALLKKA-NH2 [LAH4-A4]
[2]
  Cytotoxicity (mortality, 7-AAD): no apparent cytotoxicity
  Cytotoxicity (mortality, 7-AAD) in dose-response experiment: no apparent cytotoxicity
  Cytotoxic effect of the peptides: did not observe any cytotoxic effect

## HHALLAHALHLLALLALHLAHALHHA (LAH8-L1)
[1]
  Transduction efficiency compared with LAH4-L1 (in words): detrimental

## KKALLHAALAHLLALAHHLLALLKK (LAH4-A4-d1aa)
[1]
  Transduction efficiency compared with LAH4-A4 (in words): slightly decreases the efficiency

## KKLLLHALLAHLLALLHHLLALLKKL (LAH4-A4-Leu)
[1]
  Transduction efficiency compared with LAH4-A4 (in words): two times less potent than LAH4-A4

## KKALLHLALLHAALLAHHLALALKKA-NH2 [LAH4-L4ISO]
[2]
  Cytotoxic effect of the peptides: did not observe any cytotoxic effect

## ALLHAALAHLLALAHHLLALLKKA-NH2 [LAH4-A4-dKN]
[2]
  Cytotoxicity (mortality, 7-AAD): not the consequence of a strong cytotoxic effect

## LAH4-L4: L series peptide with hydrophilic angle of 140°; b61: LAH4-L4 peptide of SEQ ID NO:36; possibly LAH4-L4iso is meant (KKALLALALHHLALLAHLLALHLKKA; LAH4-L4) [L series peptide with hydrophilic angle of 140°; possibly LAH4-L4iso is meant]
[1]
  Capacity to promote transduction of hCD34+ cells with GALVTR-LVs, ranking within L and A series of isomers: most efficient

## KKALLHAALAHLLPLAHHLLALLKKA (LAH4-A4-P14)
[1]
  Lentiviral transduction abolished relative to LAH4-A4: 80%

## KKALLAKALKLLALLALKLAKALKKA-NH2 [LAK4-L1]
[2]
  Cytotoxicity (mortality, 7-AAD): not the consequence of a strong cytotoxic effect

## KKALLHALLAHLAALLHALLAHLKKA-NH2 [LAH4-A5]
[2]
  Cytotoxic effect of the peptides: did not observe any cytotoxic effect

## RRALLAHALHLLALLALHLAHALRRA-NH2 [LAH4-L1-R]
[2]
  Cytotoxicity (mortality, 7-AAD): no apparent cytotoxicity

## GIHKQKEKSRLQGGVLVNEILNHMKRATQIPSYKKLIMY (SEVI) [human Semen Enhancer of Viral Infection, fragment of the human prostatic acid phosphatase; not amidated]
[4]
  Ability to promote the transduction of lentiviral vectors: able to promote the transduction of lentiviral vectors

## KKALLAAALAALLALAHHLLALLKKA (LAH2-A4)
[1]
  Transduction efficiency compared with LAH4-A4 (in words): not functional

## KKALLAAALAALLALAAALLALLKKA (K2-L10A12-K2)
[1]
  Transduction efficiency compared with LAH4-A4 (in words): still able to promote some lentiviral transduction
  hCD34+ transduction level compared to LAH4-A4: 17%
[5]
  Transfection of 293T cells with GFP plasmid: unable to promote cell transfection

## KKALLHAALAHLLALAAALLALLKKA-NH2 [LAH2-A6]
[2]
  Cytotoxicity (mortality, 7-AAD): no apparent cytotoxicity
